Measured values published in patent US20090291971A1, “HETEROARYL ETHERS AND PROCESSES FOR THEIR PREPARATION” (Wyeth, priority 2007, published 2009).

Columns and labels:
Assay type in all cases: biochemical
[1] = molecular target: PI3K alpha (Homo sapiens, UniProt P42336); assay: PI3 Kinase Assay (PI3K alpha)
Method: (§1) PI3-Kinase reactions were performed in […], pH 7, […], and 25 μM ATP, with diC8-PI(4,5)P2 (Echelon, Salt Lake City Utah) as substrate. Nunc 384 well black polypropylene fluorescent plates were used for PI3K assays. Reactions were quenched by the addition of EDTA to a final concentration of […]. Final reaction volumes were […]. For evaluation of PI 3-K inhibitors, 5 ng of enzyme and 2.5 μM of substrate was used per […] reaction volume, and inhibitor concentrations ranged from 100 μM to […]; the final level of DMSO in reactions never exceeded 2%. Reactions were allowed to proceed for one hour at 25° C. After 1 hour, GST-tagged GRP1 (general receptor for phosphoinositides) PH domain fusion protein was added to a final concentration of 100 nM, and BODIPY-TMRI(1,3,4,5)P4 (Echelon) was also added to a final concentration of 5 nM. Final sample volumes were 25 μl with a final DMSO concentration of 0.8%. Assay Plates were read on Perkin-Elmer Envision plate readers with appropriate filters for Tamra [BODIPY-TMRI(1,3,4,5)P4]. Data obtained were used to calculate enzymatic activity and enzyme inhibition by inhibitor compounds.

[2] = molecular target: PI3K gamma (Homo sapiens, UniProt P48736); assay: PI3 Kinase Assay (PI3K gamma); conditions: 1 h
PI3K gamma, sequence (P48736 whole entry, species assumed): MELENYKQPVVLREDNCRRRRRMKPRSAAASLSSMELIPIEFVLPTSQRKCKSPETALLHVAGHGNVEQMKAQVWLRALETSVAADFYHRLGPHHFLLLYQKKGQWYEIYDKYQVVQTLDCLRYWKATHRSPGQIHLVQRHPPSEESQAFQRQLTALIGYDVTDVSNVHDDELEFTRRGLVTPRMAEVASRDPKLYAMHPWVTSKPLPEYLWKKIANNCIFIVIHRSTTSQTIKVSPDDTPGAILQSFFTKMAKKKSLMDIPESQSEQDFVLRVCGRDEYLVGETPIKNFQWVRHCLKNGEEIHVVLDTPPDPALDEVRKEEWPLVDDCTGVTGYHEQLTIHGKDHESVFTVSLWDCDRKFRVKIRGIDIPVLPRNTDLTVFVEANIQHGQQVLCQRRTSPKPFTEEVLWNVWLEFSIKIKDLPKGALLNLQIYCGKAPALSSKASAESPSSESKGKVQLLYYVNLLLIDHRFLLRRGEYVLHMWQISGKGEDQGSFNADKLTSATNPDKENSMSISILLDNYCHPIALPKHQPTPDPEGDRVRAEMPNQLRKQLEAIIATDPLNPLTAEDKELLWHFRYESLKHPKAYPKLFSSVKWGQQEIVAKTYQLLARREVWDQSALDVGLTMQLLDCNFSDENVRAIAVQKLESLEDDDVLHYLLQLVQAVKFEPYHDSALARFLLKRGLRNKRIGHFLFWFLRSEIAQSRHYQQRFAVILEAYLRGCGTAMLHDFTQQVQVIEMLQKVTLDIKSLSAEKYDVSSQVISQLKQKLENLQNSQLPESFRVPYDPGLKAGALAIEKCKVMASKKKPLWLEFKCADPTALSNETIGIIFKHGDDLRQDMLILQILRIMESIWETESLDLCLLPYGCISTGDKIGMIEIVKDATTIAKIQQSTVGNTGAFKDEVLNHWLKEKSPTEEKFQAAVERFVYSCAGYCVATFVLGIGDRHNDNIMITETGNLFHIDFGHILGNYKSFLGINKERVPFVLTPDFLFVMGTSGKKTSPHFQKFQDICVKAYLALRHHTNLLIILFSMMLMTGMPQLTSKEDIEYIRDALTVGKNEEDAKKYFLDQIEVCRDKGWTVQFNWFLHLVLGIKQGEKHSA
Method: as §1

[3] = molecular target: T1, recombinant human B-Raf (Homo sapiens, UniProt P15056); assay: B-Raf Kinase Assay
T1 construct: Flag; GST; purchased Upstate; host or cells: Sf21 insect cells
T1 sequence (P15056 whole entry): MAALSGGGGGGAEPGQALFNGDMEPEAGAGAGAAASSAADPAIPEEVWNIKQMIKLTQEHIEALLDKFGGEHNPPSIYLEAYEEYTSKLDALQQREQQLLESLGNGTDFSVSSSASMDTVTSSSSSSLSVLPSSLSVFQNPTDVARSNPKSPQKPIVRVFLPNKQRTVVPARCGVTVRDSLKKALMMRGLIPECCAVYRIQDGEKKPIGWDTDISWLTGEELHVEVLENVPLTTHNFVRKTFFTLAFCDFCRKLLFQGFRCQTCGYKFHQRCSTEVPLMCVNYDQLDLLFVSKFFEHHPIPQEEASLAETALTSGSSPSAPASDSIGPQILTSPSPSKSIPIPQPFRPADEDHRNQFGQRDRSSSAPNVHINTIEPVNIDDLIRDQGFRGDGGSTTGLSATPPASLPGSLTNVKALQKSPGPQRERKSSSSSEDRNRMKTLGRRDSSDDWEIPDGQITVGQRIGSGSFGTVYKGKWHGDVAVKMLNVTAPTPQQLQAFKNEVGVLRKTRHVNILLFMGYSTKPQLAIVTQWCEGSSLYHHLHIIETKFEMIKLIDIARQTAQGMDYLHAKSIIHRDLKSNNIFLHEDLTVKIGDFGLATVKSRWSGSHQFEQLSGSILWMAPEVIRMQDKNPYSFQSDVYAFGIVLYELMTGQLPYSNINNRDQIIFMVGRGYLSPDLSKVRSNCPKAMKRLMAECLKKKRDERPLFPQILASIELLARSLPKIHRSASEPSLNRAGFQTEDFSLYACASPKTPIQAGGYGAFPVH
Method: Reagents: Flag/GST-tagged recombinant human B-Raf produced in Sf21 insect cells (purchased from Upstate), human Mek-1-GST, non-active recombinant protein produced in E. coli (from Upstate); and a phospho-MEK1 specific poly-clonal Ab from Cell Signaling Technology (cat. #9121).
• B-Raf-1 is used to phosphorylate GST-MEK1. MEK1 phosphorylation is measured by a phospho-specific antibody (from Cell Signaling Technology, cat. #9121) that detects phosphorylation of two serine residues at positions 217 and 221 on MEK1.
1. Assay Dilution Buffer (ADB): 20 mM MOPS, pH 7.2, 25 mM β-glycerol phosphate, 5 mM EGTA, 1 mM sodium orthovanadate, 1 mM dithiothreitol, 0.01% Triton X-100. 2. Magnesium/ATP Cocktail: ADB solution (minus Triton X-100) plus 200 μM cold ATP and 40 mM magnesium chloride. 3. Active Kinase: Active B-Raf: used at 0.2 nM per assay point. 4. Non-active GST-MEK1: Use at 2.8 nM final concentration). 5. TBST-Tris (50 mM, pH 7.5), NaCl (150 mM), Tween-20 (0.05%)
7. Anti pMEK Ab (Upstate) 8. Anti-rabbit Ab/Europium conjugate (Wallac)
1. Add 25 μl of ADB containing B-Raf and Mek per assay (i.e. per well of a 96 well plate) 2. Add 25 μl of 0.2 mM ATP and 40 mM magnesium chloride in Magnesium/ATP Cocktail. 3. Incubate for 45 minutes at RT with occasional shaking. 4. Transfer this mixture to an anti-GST Ab coated 96 well plate (Nunc Immunosorb plates coated o/n with a-GST. Plate freshly washed 3× with TBS-T before use. 5. Incubate o/n at […] in cold room. 6. Wash 3× with TBST, add Anti-Phospho MEK1 (1:1000, dilution depends upon lot) 7. Incubate for 60 minutes at RT in a shaking incubator 8. Wash 3× with TBST, add Anti-rabbit Ab/Europium conjugate (Wallac) (1:500, dilution depends upon lot) 9. Incubate for 60 minutes at RT on a platform shaker. 10. Wash plate 3× with TBS-T 11. Add 100 ul of Wallac Delfia Enhancement Solution and shake for 10 minutes. 12. Read plates in Wallac Victor model Plate Reader. 13. Collect data analyze in Excel for single point and IC50 determinations.

[4] = molecular target: T2, human recombinant MK2 (Homo sapiens, UniProt P49137); assay: MK2 kinase ELISA based assay
T2 construct: human recombinant MK2 (25 nM) containing residues 41 through 353
T2 sequence (P49137 41-353): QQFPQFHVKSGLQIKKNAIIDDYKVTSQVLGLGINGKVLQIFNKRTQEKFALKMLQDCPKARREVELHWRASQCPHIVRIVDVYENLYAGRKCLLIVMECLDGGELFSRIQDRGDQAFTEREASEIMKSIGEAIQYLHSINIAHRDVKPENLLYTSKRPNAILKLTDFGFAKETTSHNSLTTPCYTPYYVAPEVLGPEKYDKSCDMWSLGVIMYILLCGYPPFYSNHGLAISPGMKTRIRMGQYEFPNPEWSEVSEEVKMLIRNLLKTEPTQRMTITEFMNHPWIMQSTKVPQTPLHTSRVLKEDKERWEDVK
Method: MK2 kinase activity was assessed using human recombinant MK2 (25 nM) containing residues 41 through 353 in an ELISA based assay. The kinase reaction was performed on 96-well streptavidin coated plates using a biotinylated 16-mer peptide as a substrate derived from LSP1 in 20 mM Hepes pH7.4, 10 mM MgCl2, 3 mM DTT, 1 uM ATP, 0.01% Triton X100, 2% DMSO and various compound concentrations in a final volume of 100 ul. The reaction was stopped after 30 min incubation at room temperature with 50 ul of 0.5M EDTA and washed 6 times in PBS 0.05% Tween 20. Polyclonal anti phospho-LSP1 antibodies was then added to the plate along with a Goat anti-Rabbit antibody labeled with europium in 20 mM MOPS, 150 mM NaCl, 0.025% Tween 20, 0.02% gelatin, 1% BSA for 1 hour at room temperature. The plate was then washed 6 times in PBS 0.05% Tween 20 and enhancement solution from Perkin Elmer was added before counting on a Victor 2 reader from Perkin Elmer.

[5] = molecular target: T3, human recombinant IRAK4 (Homo sapiens, UniProt Q9NWZ3); assay: IRAK4 kinase ELISA based assay
T3 construct: human recombinant IRAK4 (4 nM) containing residues 154 through 460
T3 sequence (Q9NWZ3 154-460): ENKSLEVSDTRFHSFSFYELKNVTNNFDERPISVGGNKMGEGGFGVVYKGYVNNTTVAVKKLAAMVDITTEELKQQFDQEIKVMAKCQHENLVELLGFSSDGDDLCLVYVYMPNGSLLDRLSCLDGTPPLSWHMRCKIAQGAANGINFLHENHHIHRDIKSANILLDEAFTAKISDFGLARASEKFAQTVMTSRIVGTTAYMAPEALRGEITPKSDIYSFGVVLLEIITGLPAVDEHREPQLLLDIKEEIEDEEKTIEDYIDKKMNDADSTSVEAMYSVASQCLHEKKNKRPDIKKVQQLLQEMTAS
Method: IRAK4 kinase activity was assessed using human recombinant IRAK4 (4 nM) containing residues 154 through 460 in an ELISA based assay. The kinase reaction was performed on 96-well streptavidin coated plates using a biotinylated 11-mer peptide derived from MK2 in 20 mM Hepes pH7.4, 10 mM MgCl2, 3 mM DTT, 600 uM ATP, 0.01% Triton X100, 5% DMSO and various compound concentrations in a final volume of 100 ul. The reaction was stopped after 60 min incubation at room temperature with 50 ul of 0.5M EDTA and washed 6 times in PBS 0.05% Tween 20. A Rabbit polyclonal anti-phospho-threonine antibody was then added to the plate along with a Goat anti-Rabbit antibody labeled with europium in 20 mM MOPS, 150 mM NaCl, 0.025% Tween 20, 0.02% gelatin, 1% BSA for 1 hour at room temperature. The plate was then washed 6 times in PBS 0.05% Tween 20 and enhancement solution from Perkin Elmer was added before counting on a Victor 2 reader from Perkin Elmer.

[6] = molecular target: T4, human TOR (FLAG-TOR) (Homo sapiens, UniProt P42345); assay: mTOR Enzyme Assay (DELFIA)
T4 construct: FLAG
Method: The routine human TOR assays with purified enzyme were performed in 96-well plates by DELFIA format as follows. Enzymes were first diluted in kinase assay buffer (10 mM Hepes (pH 7.4), 50 mM NaCl, 50 mM β-glycerophosphate, 10 mM MnCl2, 0.5 mM DTT, 0.25 μM microcystin LR, and 100 μg/mL BSA). To each well, 12 μL of the diluted enzyme were mixed briefly with 0.5 μL test inhibitor or control vehicle dimethylsulfoxide (DMSO). The kinase reaction was initiated by adding 12.5 μL kinase assay buffer containing ATP and His6-S6K to give a final reaction volume of 25 μL containing 800 ng/mL FLAG-TOR, 100 μM ATP and 1.25 μM His6-S6K. The reaction plate was incubated for 2 hours (linear at 1-6 hours) at room temperature with gentle shaking and then terminated by adding 25 μL Stop buffer (20 mM Hepes (pH 7.4), 20 mM EDTA, 20 mM EGTA). The DELFIA detection of the phosphorylated (Thr-389) His6-S6K was performed at room temperature using a monoclonal anti-P(T389)-p70S6K antibody (1A5, Cell Signaling) labeled with Europium-N-1-ITC (Eu) (10.4 Eu per antibody, PerkinElmer). The DELFIA Assay buffer and Enhancement solution were purchased from PerkinElmer. 45 μL of the terminated kinase reaction mixture was transferred to a MaxiSorp plate (Nunc) containing 55 μL PBS. […] L of DELFIA Enhancement solution was added to each well and the plates were read in a PerkinElmer Victor model plate reader. […]

PI3K alpha, sequence (P42336 whole entry, species assumed, the tested form may be a part): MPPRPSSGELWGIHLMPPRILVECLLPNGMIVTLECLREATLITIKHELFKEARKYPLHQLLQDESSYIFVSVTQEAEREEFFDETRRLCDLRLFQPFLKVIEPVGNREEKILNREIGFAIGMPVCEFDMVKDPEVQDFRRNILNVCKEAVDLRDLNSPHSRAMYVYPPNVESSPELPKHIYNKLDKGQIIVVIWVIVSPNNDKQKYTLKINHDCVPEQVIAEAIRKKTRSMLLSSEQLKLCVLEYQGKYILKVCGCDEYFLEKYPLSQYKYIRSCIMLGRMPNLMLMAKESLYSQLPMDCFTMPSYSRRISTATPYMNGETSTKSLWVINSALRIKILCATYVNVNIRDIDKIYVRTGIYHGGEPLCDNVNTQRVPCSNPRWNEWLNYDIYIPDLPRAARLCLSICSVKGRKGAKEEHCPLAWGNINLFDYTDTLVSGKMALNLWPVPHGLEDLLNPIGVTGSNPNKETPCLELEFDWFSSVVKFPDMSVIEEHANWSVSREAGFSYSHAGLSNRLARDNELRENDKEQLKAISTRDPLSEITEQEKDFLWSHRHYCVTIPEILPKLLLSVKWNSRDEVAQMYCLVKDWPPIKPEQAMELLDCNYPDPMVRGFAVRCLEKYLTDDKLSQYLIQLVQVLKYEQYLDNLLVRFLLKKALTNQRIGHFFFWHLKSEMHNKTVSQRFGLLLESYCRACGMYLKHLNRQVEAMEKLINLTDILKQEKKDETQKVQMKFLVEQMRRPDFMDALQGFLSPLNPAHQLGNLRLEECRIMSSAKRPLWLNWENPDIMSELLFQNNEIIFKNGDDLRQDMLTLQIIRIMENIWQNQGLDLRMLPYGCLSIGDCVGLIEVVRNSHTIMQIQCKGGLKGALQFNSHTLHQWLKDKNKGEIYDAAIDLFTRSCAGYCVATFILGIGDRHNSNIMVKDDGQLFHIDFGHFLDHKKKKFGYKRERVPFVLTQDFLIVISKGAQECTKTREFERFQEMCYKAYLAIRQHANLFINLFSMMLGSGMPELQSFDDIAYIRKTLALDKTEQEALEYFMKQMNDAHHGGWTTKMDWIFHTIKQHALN
PI3K alpha, sequence (P27986 whole entry partner, species assumed, the tested form may be a part): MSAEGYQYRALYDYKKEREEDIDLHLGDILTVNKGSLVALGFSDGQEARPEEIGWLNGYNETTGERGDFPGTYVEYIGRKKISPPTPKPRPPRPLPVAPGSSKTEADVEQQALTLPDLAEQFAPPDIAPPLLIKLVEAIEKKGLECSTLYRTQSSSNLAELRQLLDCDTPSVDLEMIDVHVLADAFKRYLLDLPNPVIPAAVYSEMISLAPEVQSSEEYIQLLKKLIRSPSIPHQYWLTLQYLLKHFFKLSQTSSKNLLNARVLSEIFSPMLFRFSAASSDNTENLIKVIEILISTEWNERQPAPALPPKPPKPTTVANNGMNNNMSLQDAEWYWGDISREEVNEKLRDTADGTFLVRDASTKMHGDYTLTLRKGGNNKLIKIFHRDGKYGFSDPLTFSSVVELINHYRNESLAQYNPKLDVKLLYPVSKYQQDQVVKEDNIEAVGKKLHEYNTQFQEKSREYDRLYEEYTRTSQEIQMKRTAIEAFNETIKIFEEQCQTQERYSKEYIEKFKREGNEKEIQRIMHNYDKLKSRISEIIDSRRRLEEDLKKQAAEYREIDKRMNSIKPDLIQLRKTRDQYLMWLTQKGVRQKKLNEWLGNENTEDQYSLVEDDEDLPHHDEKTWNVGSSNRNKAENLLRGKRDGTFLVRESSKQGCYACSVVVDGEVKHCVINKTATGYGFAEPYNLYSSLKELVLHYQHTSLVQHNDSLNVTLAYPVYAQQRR

SMILES | inhibition at 30 µM [1] [%] | inhibition at 30 µM [2] [%] | inhibition at 10 µM [3] [%] | inhibition at 30 µM [4] [%] | inhibition at 10 µM [5] [%] | inhibition at 10 µM [6] [%]
c1ccc2c(Oc3ccc4[nH]ccc4c3)ncnc2c1 [Example 29, 4-(1H-Indol-5-yloxy)quinazoline] | 68 | 21 | 21 |  |  | 
c1ccc2c(Oc3ccsc3)ncnc2c1 [Example 30, 4-(Thiophen-3-yloxy)quinazoline] | 87 | 55 | 14 | 34 | 39 | 
c1ccc2c(Oc3cncnc3)ncnc2c1 [Example 31, 4-(Pyrimidin-5-yloxy)quinazoline] | 33 | 53 |  |  |  | 12
Cn1ccc(Oc2ccccc2)nc1=O [Example 58, 1-Methyl-4-phenoxypyrimidin-2(1H)-one] | 32 | < 10 | 17 |  |  | 

The next lines start with the values.

inhibition at 30 µM [1] [%] | inhibition at 30 µM [2] [%] | inhibition at 10 µM [3] [%] | inhibition at 30 µM [4] [%] | inhibition at 10 µM [5] [%] | inhibition at 10 µM [6] [%] | SMILES
42 | 11 | 20 | 31 | 19 |  | Clc1ccc(Oc2ncnc3ccccc23)cn1 [Example 25, 4-(6-Chloropyridin-3-yloxy)quinazoline]
24 | 15 |  | 32 | 21 |  | COC(=O)c1sc2ncnc(Oc3c(C)noc3C)c2c1C [Example 39, Methyl 4-(3,5-dimethylisoxazol-4-yloxy)-5-methylthieno[2,3-d]pyrimidine-6-carboxylate]
